Results reported in patent US20240190880A1 (THE REGENTS OF THE UNIVERSITY OF MICHIGAN, priority 2021, published 2024).

What follows are molecules tested against T1, ER (Homo sapiens, UniProt P03372) (assay: ER degradation activity, in-cell western blot analysis in T47D cells). Conditions: 16 hours, Table A does not say which cell line (T47D or MCF7), read-out: Potency (DC50).
T1 construct: host or cells: T47D and MCF7 human breast cancer cells
T1 sequence (P03372 1-595): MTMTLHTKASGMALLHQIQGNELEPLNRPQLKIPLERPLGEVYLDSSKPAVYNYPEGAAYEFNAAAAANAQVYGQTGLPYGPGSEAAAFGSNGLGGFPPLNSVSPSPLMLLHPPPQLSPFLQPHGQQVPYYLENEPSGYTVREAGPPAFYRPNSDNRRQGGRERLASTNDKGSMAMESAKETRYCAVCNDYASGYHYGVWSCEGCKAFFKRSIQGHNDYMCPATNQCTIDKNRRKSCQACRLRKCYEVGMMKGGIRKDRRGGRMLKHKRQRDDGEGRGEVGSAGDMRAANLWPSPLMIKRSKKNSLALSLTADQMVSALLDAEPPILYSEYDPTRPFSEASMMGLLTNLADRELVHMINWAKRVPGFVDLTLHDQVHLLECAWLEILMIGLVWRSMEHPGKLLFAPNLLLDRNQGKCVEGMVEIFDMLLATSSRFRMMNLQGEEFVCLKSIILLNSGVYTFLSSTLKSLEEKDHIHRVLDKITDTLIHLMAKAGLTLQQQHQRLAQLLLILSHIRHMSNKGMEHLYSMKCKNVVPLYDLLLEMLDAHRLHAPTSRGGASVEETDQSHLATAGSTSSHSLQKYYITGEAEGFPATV
Format: cell-based
In short: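 Human T47D cells (DMEM, 10% FBS) are dosed for 16 h with 0.5% DMSO final and probed with 680- and 800-dye secondary antibodies. Relative ER is calculated against vehicle and untreated wells.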

Structure (SMILES) | DC50
C[C@@H]1Cc2cc(O)ccc2[C@@H](c2c(F)cc(N3CCC4(CCN(CC(=O)N5Cc6cc7c(cc6C5)C(=O)N(C5CCC(=O)NC5=O)C7)C4)CC3)cc2F)N1CC(C)(F)F (stereo partly drawn) [E 34, 3-(6-(2-(8-(4-((1S,3R)-2-(2,2-difluoropropyl)-6-hydroxy-3-methyl-1,2,3,4-tetrahydroisoquinolin-1-yl)-3,5-difluorophenyl)-2,8-diazaspiro[4.5]decan-2-yl)acetyl)-1-oxo-3,5,6,7-tetrahydropyrrolo[3,4-f]isoindol-2(1H)-yl)piperidine-2,6-dione] | 10 to 100 nM
C[C@@H]1Cc2cc(O)ccc2[C@@H](c2c(F)cc(N3CC4(CN(C(=O)CN5Cc6cc7c(cc6C5)C(=O)N(C5CCC(=O)NC5=O)C7=O)C4)C3)cc2F)N1CC(F)F (stereo partly drawn) [E 42, 6-(2-(6-(4-((1S,3R)-2-(2,2-difluoroethyl)-6-hydroxy-3-methyl-1,2,3,4-tetrahydroisoquinolin-1-yl)-3,5-difluorophenyl)-2,6-diazaspiro[3.3]heptan-2-yl)-2-oxoethyl)-2-(2,6-dioxopiperidin-3-yl)-6,7-dihydropyrrolo[3,4-f]isoindole-1,3(2H,5H)-dione] | < 10 nM
C[C@@H]1Cc2cc(O)ccc2[C@@H](c2c(F)cc(N3CC4(CCN(C(=O)CN5Cc6cc7c(cc6C5)C(=O)N(C5CCC(=O)NC5=O)C7=O)C4)C3)cc2F)N1CC(F)F (stereo partly drawn) [E 43, 6-(2-(2-(4-((1S,3R)-2-(2,2-difluoroethyl)-6-hydroxy-3-methyl-1,2,3,4-tetrahydroisoquinolin-1-yl)-3,5-difluorophenyl)-2,6-diazaspiro[3.4]octan-6-yl)-2-oxoethyl)-2-(2,6-dioxopiperidin-3-yl)-6,7-dihydropyrrolo[3,4-f]isoindole-1,3(2H,5H)-dione] | < 10 nM
C[C@@H]1Cc2cc(O)ccc2[C@@H](c2c(F)cc(N3CCC4(CN(C(=O)CN5Cc6cc7c(cc6C5)C(=O)N(C5CCC(=O)NC5=O)C7=O)C4)C3)cc2F)N1CC(F)F (stereo partly drawn) [E 44, 6-(2-(6-(4-((1S,3R)-2-(2,2-difluoroethyl)-6-hydroxy-3-methyl-1,2,3,4-tetrahydroisoquinolin-1-yl)-3,5-difluorophenyl)-2,6-diazaspiro[3.4]octan-2-yl)-2-oxoethyl)-2-(2,6-dioxopiperidin-3-yl)-6,7-dihydropyrrolo[3,4-f]isoindole-1,3(2H,5H)-dione] | 10 to 100 nM
C[C@@H]1Cc2cc(O)ccc2[C@@H](c2c(F)cc(N3CC4(CCN(C(=O)CN5Cc6cc7c(cc6C5)C(=O)N(C5CCC(=O)NC5=O)C7=O)CC4)C3)cc2F)N1CC(F)F (stereo partly drawn) [E 45, 6-(2-(2-(4-((1S,3R)-2-(2,2-difluoroethyl)-6-hydroxy-3-methyl-1,2,3,4-tetrahydroisoquinolin-1-yl)-3,5-difluorophenyl)-2,7-diazaspiro[3.5]nonan-7-yl)-2-oxoethyl)-2-(2,6-dioxopiperidin-3-yl)-6,7-dihydropyrrolo[3,4-f]isoindole-1,3(2H,5H)-dione] | < 10 nM
C[C@@H]1Cc2cc(O)ccc2[C@@H](c2c(F)cc(N3CCC(N4CC(CN5Cc6cc7c(cc6C5)C(=O)N(C5CCC(=O)NC5=O)C7=O)C4)CC3)cc2F)N1CC(F)F (stereo partly drawn) [E 46, 6-((1-(1-(4-((1S,3R)-2-(2,2-difluoroethyl)-6-hydroxy-3-methyl-1,2,3,4-tetrahydroisoquinolin-1-yl)-3,5-difluorophenyl)piperidin-4-yl)azetidin-3-yl)methyl)-2-(2,6-dioxopiperidin-3-yl)-6,7-dihydropyrrolo[3,4-f]isoindole-1,3(2H,5H)-dione] | > 100 nM
C[C@@H]1Cc2cc(O)ccc2[C@@H](c2c(F)cc(N3CCC(CN4CC(N5Cc6cc7c(cc6C5)C(=O)N(C5CCC(=O)NC5=O)C7=O)C4)CC3)cc2F)N1CC(F)F (stereo partly drawn) [E 47, 6-(1-((1-(4-((1S,3R)-2-(2,2-difluoroethyl)-6-hydroxy-3-methyl-1,2,3,4-tetrahydroisoquinolin-1-yl)-3,5-difluorophenyl)piperidin-4-yl)methyl)azetidin-3-yl)-2-(2,6-dioxopiperidin-3-yl)-6,7-dihydropyrrolo[3,4-f]isoindole-1,3(2H,5H)-dione] | > 100 nM
O=C1CCC(N2Cc3cc4c(cc3C2=O)CN(C(=O)CN2CC3(C2)CN(c2ccc(C5=C(c6ccc(F)cc6)CCCc6cc(O)ccc65)cc2)C3)C4)C(=O)N1 (stereo not drawn) [E 48] | 10 to 100 nM
O=C1CCC(N2C(=O)c3cc4c(cc3C2=O)CN(C(=O)CN2CC3(C2)CN(c2ccc(C5=C(c6ccc(F)cc6)CCCc6cc(O)ccc65)cc2)C3)C4)C(=O)N1 (stereo not drawn) [E 49, 2-(2,6-dioxopiperidin-3-yl)-6-(2-(6-(4-(8-(4-fluorophenyl)-3-hydroxy-6,7-dihydro-5H-benzo[7]annulen-9-yl)phenyl)-2,6-diazaspiro[3.3]heptan-2-yl)acetyl)-6,7-dihydropyrrolo[3,4-f]isoindole-1,3(2H,5H)-dione] | 10 to 100 nM
C[C@@H]1Cc2c([nH]c3ccccc23)[C@@H](c2c(F)cc(N3CCC(CN4CC(N5Cc6cc7c(cc6C5)C(=O)N(C5CCC(=O)NC5=O)C7=O)C4)CC3)cc2F)N1CC(F)F (stereo partly drawn) [E 50, 6-(1-((1-(4-((1R,3R)-2-(2,2-difluoroethyl)-3-methyl-2,3,4,9-tetrahydro-1H-pyrido[3,4-b]indol-1-yl)-3,5-difluorophenyl)piperidin-4-yl)methyl)azetidin-3-yl)-2-(2,6-dioxopiperidin-3-yl)-6,7-dihydropyrrolo[3,4-f]isoindole-1,3(2H,5H)-dione] | > 100 nM
C[C@@H]1Cc2c([nH]c3ccccc23)[C@@H](c2c(F)cc(N3CCC(CN4CCC(N5Cc6cc7c(cc6C5)C(=O)N(C5CCC(=O)NC5=O)C7=O)CC4)CC3)cc2F)N1CC(F)F (stereo partly drawn) [E 51, 6-(1-((1-(4-((1R,3R)-2-(2,2-difluoroethyl)-3-methyl-2,3,4,9-tetrahydro-1H-pyrido[3,4-b]indol-1-yl)-3,5-difluorophenyl)piperidin-4-yl)methyl)piperidin-4-yl)-2-(2,6-dioxopiperidin-3-yl)-6,7-dihydropyrrolo[3,4-f]isoindole-1,3(2H,5H)-dione] | 10 to 100 nM

Second part, the molecule after the results:

DC50 | Structure (SMILES)
< 10 nM | C[C@@H]1Cc2cc(O)ccc2[C@@H](c2c(F)cc(N3CCC4(CC3)CN(C(=O)CN3Cc5cc6c(cc5C3)C(=O)N(C3CCC(=O)NC3=O)C6)C4)cc2F)N1CC(F)F (stereo partly drawn) [E 35]
< 10 nM | C[C@@H]1Cc2cc(O)ccc2[C@@H](c2c(F)cc(N3CC4(CCN(C(=O)CN5Cc6cc7c(cc6C5)C(=O)N(C5CCC(=O)NC5=O)C7)C4)C3)cc2F)N1CC(F)F (stereo partly drawn) [E 36, 3-(6-(2-(2-(4-((1S,3R)-2-(2,2-difluoroethyl)-6-hydroxy-3-methyl-1,2,3,4-tetrahydroisoquinolin-1-yl)-3,5-difluorophenyl)-2,6-diazaspiro[3.4]octan-6-yl)-2-oxoethyl)-1-oxo-3,5,6,7-tetrahydropyrrolo[3,4-f]isoindol-2(1H)-yl)piperidine-2,6-dione]
< 10 nM | C[C@@H]1Cc2cc(O)ccc2[C@@H](c2c(F)cc(N3CCC4(CN(C(=O)CN5Cc6cc7c(cc6C5)C(=O)N(C5CCC(=O)NC5=O)C7)C4)C3)cc2F)N1CC(F)F (stereo partly drawn) [E 37, 3-(6-(2-(6-(4-((1S,3R)-2-(2,2-difluoroethyl)-6-hydroxy-3-methyl-1,2,3,4-tetrahydroisoquinolin-1-yl)-3,5-difluorophenyl)-2,6-diazaspiro[3.4]octan-2-yl)-2-oxoethyl)-1-oxo-3,5,6,7-tetrahydropyrrolo[3,4-f]isoindol-2(1H)-yl)piperidine-2,6-dione]
10 to 100 nM | C[C@@H]1Cc2cc(O)ccc2[C@@H](c2c(F)cc(N3CCC4(CN(CC(=O)N5Cc6cc7c(cc6C5)C(=O)N(C5CCC(=O)NC5=O)C7)C4)C3)cc2F)N1CC(F)F (stereo partly drawn) [E 38, 3-(6-(2-(6-(4-((1S,3R)-2-(2,2-difluoroethyl)-6-hydroxy-3-methyl-1,2,3,4-tetrahydroisoquinolin-1-yl)-3,5-difluorophenyl)-2,6-diazaspiro[3.4]octan-2-yl)acetyl)-1-oxo-3,5,6,7-tetrahydropyrrolo[3,4-f]isoindol-2(1H)-yl)piperidine-2,6-dione]
< 10 nM | C[C@@H]1Cc2cc(O)ccc2[C@@H](c2c(F)cc(N3CCC4(CC3)CN(CC(=O)N3Cc5cc6c(cc5C3)C(=O)N(C3CCC(=O)NC3=O)C6)C4)cc2F)N1CC(F)F (stereo partly drawn) [E 39]
< 10 nM | C[C@@H]1Cc2cc(O)ccc2[C@@H](c2c(F)cc(N3CC4(CCN(CC(=O)N5Cc6cc7c(cc6C5)C(=O)N(C5CCC(=O)NC5=O)C7)C4)C3)cc2F)N1CC(F)F (stereo partly drawn) [E 40, 3-(6-(2-(2-(4-((1S,3R)-2-(2,2-difluoroethyl)-6-hydroxy-3-methyl-1,2,3,4-tetrahydroisoquinolin-1-yl)-3,5-difluorophenyl)-2,6-diazaspiro[3.4]octan-6-yl)acetyl)-1-oxo-3,5,6,7-tetrahydropyrrolo[3,4-f]isoindol-2(1H)-yl)piperidine-2,6-dione]
< 10 nM | C[C@@H]1Cc2cc(O)ccc2[C@@H](c2c(F)cc(N3CCC4(CC3)CN(C(=O)CN3Cc5cc6c(cc5C3)C(=O)N(C3CCC(=O)NC3=O)C6=O)C4)cc2F)N1CC(F)F (stereo partly drawn) [E 41, 6-(2-(7-(4-((1S,3R)-2-(2,2-difluoroethyl)-6-hydroxy-3-methyl-1,2,3,4-tetrahydroisoquinolin-1-yl)-3,5-difluorophenyl)-2,7-diazaspiro[3.5]nonan-2-yl)-2-oxoethyl)-2-(2,6-dioxopiperidin-3-yl)-6,7-dihydropyrrolo[3,4-f]isoindole-1,3(2H,5H)-dione]
